What all share (type): cell-based, HEK293
Experiment [1] deals with T1, GABA-A receptor; alpha-5/beta-3/gamma-2 (Homo sapiens, UniProt P18507+P28472+P31644).
T1 sequence (P18507 whole entry): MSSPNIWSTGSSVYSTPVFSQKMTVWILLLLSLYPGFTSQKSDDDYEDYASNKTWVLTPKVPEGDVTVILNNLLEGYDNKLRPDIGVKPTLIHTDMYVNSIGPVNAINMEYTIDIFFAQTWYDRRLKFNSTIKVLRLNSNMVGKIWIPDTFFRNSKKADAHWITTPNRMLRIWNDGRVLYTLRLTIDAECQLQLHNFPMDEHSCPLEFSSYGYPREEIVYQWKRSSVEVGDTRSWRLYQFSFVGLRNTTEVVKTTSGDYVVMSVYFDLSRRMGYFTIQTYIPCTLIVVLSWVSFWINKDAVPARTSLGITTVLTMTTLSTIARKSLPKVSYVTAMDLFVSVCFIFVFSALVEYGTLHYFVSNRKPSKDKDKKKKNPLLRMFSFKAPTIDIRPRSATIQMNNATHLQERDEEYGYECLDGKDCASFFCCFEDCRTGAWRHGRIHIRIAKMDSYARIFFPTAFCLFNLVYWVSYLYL
T1 sequence (P28472 whole entry): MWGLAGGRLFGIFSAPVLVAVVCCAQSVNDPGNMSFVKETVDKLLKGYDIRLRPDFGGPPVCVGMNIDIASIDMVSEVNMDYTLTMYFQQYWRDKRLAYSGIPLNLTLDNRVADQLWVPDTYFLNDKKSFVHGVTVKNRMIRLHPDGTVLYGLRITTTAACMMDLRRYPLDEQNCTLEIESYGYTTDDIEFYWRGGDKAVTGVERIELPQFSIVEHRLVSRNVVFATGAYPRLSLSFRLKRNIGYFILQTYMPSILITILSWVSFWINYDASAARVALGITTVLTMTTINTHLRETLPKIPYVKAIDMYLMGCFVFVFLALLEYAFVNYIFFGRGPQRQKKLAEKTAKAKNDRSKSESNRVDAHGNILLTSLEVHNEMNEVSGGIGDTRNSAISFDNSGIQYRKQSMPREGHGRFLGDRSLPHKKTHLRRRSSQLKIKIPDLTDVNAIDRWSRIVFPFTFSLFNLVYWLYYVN
T1 sequence (P31644 whole entry): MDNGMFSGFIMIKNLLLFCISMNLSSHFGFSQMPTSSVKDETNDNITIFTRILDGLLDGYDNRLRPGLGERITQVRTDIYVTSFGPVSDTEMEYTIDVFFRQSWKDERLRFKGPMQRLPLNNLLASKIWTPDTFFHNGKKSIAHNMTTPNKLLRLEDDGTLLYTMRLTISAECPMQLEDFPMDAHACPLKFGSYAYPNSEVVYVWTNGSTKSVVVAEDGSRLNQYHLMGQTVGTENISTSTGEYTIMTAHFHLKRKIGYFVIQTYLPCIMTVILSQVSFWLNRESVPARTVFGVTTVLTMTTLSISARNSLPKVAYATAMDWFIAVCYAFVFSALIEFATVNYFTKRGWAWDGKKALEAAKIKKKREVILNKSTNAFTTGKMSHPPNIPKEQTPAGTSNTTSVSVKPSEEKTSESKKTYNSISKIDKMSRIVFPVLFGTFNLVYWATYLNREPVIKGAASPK
In words: Displacement of [3H]flunitrazepam from human recombinant GABAA alpha-5-beta-3-gamma-2 receptor expressed in HEK cells by liquid scintillation counting.

The target in experiment [2] is T2, GABA-A receptor; alpha-1/beta-3/gamma-2 (Homo sapiens, UniProt P14867+P18507+P28472).
T2 sequence (P14867 whole entry): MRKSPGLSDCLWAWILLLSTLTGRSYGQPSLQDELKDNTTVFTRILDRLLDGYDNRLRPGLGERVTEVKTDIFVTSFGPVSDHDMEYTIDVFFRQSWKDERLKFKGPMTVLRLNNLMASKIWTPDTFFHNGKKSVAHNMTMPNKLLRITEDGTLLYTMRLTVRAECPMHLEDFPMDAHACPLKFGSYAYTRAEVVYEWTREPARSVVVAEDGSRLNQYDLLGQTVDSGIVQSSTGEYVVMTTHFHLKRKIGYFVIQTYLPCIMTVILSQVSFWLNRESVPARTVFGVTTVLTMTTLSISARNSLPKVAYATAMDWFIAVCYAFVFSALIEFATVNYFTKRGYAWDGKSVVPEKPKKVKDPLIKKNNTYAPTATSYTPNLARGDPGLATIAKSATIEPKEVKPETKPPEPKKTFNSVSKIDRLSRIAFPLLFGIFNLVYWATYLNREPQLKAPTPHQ
T2 sequence (P18507 whole entry): T1 sequence (P18507 whole entry)
T2 sequence (P28472 whole entry): T1 sequence (P28472 whole entry)
In words: Displacement of [3H]flunitrazepam from human recombinant GABAA alpha-1-beta-3-gamma-2 receptor expressed in HEK cells by liquid scintillation counting. Background: Loss of bound radioactivity is the signal in a displacement assay; it reports binding, not function.

The target in experiment [3] is T3, GABA-A receptor; alpha-2/beta-3/gamma-2 (Homo sapiens, UniProt P18507+P28472+P47869).
T3 sequence (P18507 whole entry): T1 sequence (P18507 whole entry)
T3 sequence (P28472 whole entry): T1 sequence (P28472 whole entry)
T3 sequence (P47869 whole entry): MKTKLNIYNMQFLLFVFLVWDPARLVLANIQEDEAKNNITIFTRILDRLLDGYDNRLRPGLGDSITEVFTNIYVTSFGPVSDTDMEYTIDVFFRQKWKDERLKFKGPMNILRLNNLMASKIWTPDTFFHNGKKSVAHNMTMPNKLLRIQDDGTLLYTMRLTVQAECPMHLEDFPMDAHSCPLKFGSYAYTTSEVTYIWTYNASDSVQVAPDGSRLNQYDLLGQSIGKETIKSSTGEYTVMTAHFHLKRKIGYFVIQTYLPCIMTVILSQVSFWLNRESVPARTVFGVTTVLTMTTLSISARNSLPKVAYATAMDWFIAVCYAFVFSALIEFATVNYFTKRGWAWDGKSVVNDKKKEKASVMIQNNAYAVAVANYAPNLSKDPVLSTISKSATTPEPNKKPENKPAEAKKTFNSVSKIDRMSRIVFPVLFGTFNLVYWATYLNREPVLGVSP
Briefly: Displacement of [3H]flunitrazepam from human recombinant GABAA alpha-2-beta-3-gamma-2 receptor expressed in HEK cells by liquid scintillation counting.

Experiment [4] addresses T4, GABA-A receptor; alpha-3/beta-3/gamma-2 (Homo sapiens, UniProt P18507+P28472+P34903).
T4 sequence (P18507 whole entry): T1 sequence (P18507 whole entry)
T4 sequence (P28472 whole entry): T1 sequence (P28472 whole entry)
T4 sequence (P34903 whole entry): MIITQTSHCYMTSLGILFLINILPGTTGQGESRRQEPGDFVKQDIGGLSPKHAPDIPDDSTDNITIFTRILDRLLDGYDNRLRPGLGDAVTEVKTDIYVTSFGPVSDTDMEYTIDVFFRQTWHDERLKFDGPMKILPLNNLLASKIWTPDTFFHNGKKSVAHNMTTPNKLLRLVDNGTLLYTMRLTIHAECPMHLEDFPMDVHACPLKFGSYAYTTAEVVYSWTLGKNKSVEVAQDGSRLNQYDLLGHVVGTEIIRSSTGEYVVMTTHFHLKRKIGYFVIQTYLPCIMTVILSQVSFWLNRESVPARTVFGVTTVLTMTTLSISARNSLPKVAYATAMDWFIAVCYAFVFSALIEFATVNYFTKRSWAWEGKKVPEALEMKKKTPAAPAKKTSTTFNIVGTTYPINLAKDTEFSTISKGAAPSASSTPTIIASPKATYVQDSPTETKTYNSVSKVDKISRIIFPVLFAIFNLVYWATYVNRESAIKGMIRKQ
Briefly: Displacement of [3H]flunitrazepam from human recombinant GABAA alpha-3-beta-3-gamma-2 receptor expressed in HEK cells by liquid scintillation counting.

Experiment [5] addresses GABA A receptor alpha-4/beta-3/gamma-2 (Homo sapiens, UniProt P18507+P28472+P48169). In words: Displacement of [3H]flunitrazepam from human recombinant GABAA alpha-4-beta-3-gamma-2 receptor expressed in HEK cells by liquid scintillation counting. The note with it: hek293.

The structures appear in SMILES notation. pKi: −log10 of the molar value.

This is an account of results in ChEMBL document CHEMBL1268934, “Design, synthesis, and subtype selectivity of 3,6-disubstituted β-carbolines at Bz/GABA(A)ergic receptors. SAR and studies directed toward agents for treatment of alcohol abuse” (Bioorg Med Chem, 2010).

Broadly, the pKi is the Ki on a negative log10 scale, so that one unit is a factor of ten.

GABA A receptor alpha-4/beta-3/gamma-2, sequence (P48169 whole entry, one chain of several): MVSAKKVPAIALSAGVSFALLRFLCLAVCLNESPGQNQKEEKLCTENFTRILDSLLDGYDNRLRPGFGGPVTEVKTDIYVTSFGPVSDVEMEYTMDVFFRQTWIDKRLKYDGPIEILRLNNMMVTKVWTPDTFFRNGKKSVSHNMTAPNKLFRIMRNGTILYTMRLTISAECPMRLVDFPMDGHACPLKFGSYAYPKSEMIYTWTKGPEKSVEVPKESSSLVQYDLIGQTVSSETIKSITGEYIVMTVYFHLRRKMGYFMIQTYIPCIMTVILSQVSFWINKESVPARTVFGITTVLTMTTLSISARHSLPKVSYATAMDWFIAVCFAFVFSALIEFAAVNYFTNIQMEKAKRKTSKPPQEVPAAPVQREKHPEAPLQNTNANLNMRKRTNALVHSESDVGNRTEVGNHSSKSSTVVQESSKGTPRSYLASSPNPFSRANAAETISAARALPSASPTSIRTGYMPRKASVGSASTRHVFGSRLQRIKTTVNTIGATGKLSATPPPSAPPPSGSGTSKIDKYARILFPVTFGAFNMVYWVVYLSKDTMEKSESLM

Consider `CC(C)(C)OC(=O)c1cc2c3cc(I)ccc3n(C(=O)OC(C)(C)C)c2cn1`, for which the pKi in experiment [1] was 5.73.
Turning to `C#Cc1ccc2c(c1)c1cc(C(=O)OC(C)(C)C)ncc1n2C(=O)OC(C)(C)C`, in experiment [2], the negative logarithm of the Ki (pKi) is 6.35.
As for `O=C(OC(C(F)(F)F)C(F)(F)F)c1cc2c(cn1)[nH]c1ccc(I)cc12`, the negative logarithm of the Ki (pKi) in experiment [2] is 7.11; in experiment [3], 6.52; in experiment [4], 6.88; in experiment [1], 6.17.
The like results for `CC(C)(C)OC(=O)c1cc2c(cn1)[nH]c1ccc(F)cc12` were, in that order, 8.79, 8.34, 7.83 and 8.34.
`O=C(OCC(F)(F)F)c1cc2c(cn1)[nH]c1ccc(-c3ccco3)cc12`: the pKi in experiment [2] is 7.59; in experiment [3], 6.84; in experiment [4], 6.93; in experiment [1] it was 6.90.
The like results for `CCOC(=O)c1cc2c(cn1)[nH]c1ccc(I)cc12` were, in that order, 8.32, 7.51, 7.47 and 6.54.
As for `O=C(OCC(F)(F)F)c1cc2c(cn1)[nH]c1ccc(-c3ccccc3)cc12`, the pKi is 7.60 in experiment [2], 6.86 in experiment [3], 6.90 in experiment [4] and 6.52 in experiment [1].
`CC(C)(C)OC(=O)c1cc2c(cn1)[nH]c1ccc(C#CC#Cc3ccc4[nH]c5cnc(C(=O)OC(C)(C)C)cc5c4c3)cc12`: the pKi in experiment [2] is 6.92; in experiment [3], 5.98; in experiment [4] it was 5.40.
Take `CC(OC(=O)c1cc2c(cn1)[nH]c1ccccc12)c1ccccc1` (stereo unspecified): the pKi in experiment [2] is 7.47.
On to `CCOC(=O)c1cc2c(cn1)[nH]c1ccc(C#C[Si](C)(C)C)cc12`, for which the pKi in experiment [2] was 8.36; in experiment [3], 8.35; in experiment [4] it was 8.25; in experiment [1] it was 7.33.
The like results for `O=C(OCC(F)(F)F)c1cc2c(cn1)[nH]c1ccc(-c3cccs3)cc12` were, in that order, 8.04, 7.89, 7.14 and 6.35.
As to `O=C(OCC(F)(F)F)c1cc2c(cn1)[nH]c1ccc(I)cc12`, the pKi in experiment [2] was 7.92; in experiment [3], 7.41; in experiment [4], 7.33; in experiment [1], 6.91.
As to `CC(C)(C)OC(=O)c1cc2c(cn1)[nH]c1ccc(C#C[Si](C)(C)C)cc12`, the negative logarithm of the Ki (pKi) is 8.17 in experiment [2], 7.52 in experiment [3], 7.44 in experiment [4] and 6.97 in experiment [1].
On the same counts, the results for `O=C(OC(C(F)(F)F)C(F)(F)F)c1cc2c(cn1)[nH]c1ccccc12` are 8.40, 8.10, 7.49 and 6.34.
Turning to `CC/C=C/C=C/Oc1cc2c(cn1)[nH]c1ccccc12`, the pKi in experiment [2] was 6.61; in experiment [3], 6.09; in experiment [4], 6.07.
Turning to `C#Cc1ccc2[nH]c3cnc(C(=O)OCC(F)(F)F)cc3c2c1`, the pKi in experiment [2] was 8.35; in experiment [3] it was 7.35; in experiment [4], 7.37; in experiment [1], 6.91.
Take `CCC(C)OC(=O)c1cc2c(cn1)[nH]c1ccccc12` (single isomer, unassigned): the Ki entry in experiment [5] was “Not Active”.
Consider `CC(C)(C)OC(=O)c1cc2c(cn1)[nH]c1ccc(C(C)(C)C)cc12`, for which the pKi is 8.56 in experiment [2], 8.05 in experiment [3], 7.61 in experiment [4] and 8.13 in experiment [1].
On the same counts, the results for `O=C(OCC(Cl)(Cl)Cl)c1cc2c(cn1)[nH]c1ccccc12` are 8.00, 7.48, 7.37 and 6.72.
As to `O=C(Oc1cc(F)c(F)cc1F)c1cc2c(cn1)[nH]c1ccccc12`, the pKi is 7.66 in experiment [2], 6.75 in experiment [3], 7.35 in experiment [4] and 6.37 in experiment [1].
